Like-named read-outs stand apart in the source and are kept apart here.
What was measured:
YFV-17D^DiD = type: cell-based, Yellow fever virus
YFV-17D [1] = type: cell-based, Yellow fever virus
hepatitis C virus (HCV) = type: cell-based
dengue virus (DENV) = type: cell-based
Zika virus (ZIKV) = type: cell-based
[2] = system: Japanese encephalitis virus (JEV); type: cell-based
West Nile virus (WNV) = type: cell-based
YFV-17D [3] = type: cell-based, Yellow fever virus; remark: listed apart in the source
YFV-17D [4] = type: cell-based, Yellow fever virus; remark: listed apart in the source
WNV = type: cell-based, West Nile virus
YFV-17D [5] = type: cell-based, Yellow fever virus; remark: listed apart in the source
[6] = system: clathrin-mediated endocytosis; type: cell-based, Human
YFV replicon = type: cell-based, Yellow fever virus
YFV = type: cell-based, Yellow fever virus
YFV NS5 = YFV NS5 (Yellow fever virus, UniProt P03314); experiment: biochemical; type: binding
Chain of YFV NS5 (P03314 2507-3411 limits assumed): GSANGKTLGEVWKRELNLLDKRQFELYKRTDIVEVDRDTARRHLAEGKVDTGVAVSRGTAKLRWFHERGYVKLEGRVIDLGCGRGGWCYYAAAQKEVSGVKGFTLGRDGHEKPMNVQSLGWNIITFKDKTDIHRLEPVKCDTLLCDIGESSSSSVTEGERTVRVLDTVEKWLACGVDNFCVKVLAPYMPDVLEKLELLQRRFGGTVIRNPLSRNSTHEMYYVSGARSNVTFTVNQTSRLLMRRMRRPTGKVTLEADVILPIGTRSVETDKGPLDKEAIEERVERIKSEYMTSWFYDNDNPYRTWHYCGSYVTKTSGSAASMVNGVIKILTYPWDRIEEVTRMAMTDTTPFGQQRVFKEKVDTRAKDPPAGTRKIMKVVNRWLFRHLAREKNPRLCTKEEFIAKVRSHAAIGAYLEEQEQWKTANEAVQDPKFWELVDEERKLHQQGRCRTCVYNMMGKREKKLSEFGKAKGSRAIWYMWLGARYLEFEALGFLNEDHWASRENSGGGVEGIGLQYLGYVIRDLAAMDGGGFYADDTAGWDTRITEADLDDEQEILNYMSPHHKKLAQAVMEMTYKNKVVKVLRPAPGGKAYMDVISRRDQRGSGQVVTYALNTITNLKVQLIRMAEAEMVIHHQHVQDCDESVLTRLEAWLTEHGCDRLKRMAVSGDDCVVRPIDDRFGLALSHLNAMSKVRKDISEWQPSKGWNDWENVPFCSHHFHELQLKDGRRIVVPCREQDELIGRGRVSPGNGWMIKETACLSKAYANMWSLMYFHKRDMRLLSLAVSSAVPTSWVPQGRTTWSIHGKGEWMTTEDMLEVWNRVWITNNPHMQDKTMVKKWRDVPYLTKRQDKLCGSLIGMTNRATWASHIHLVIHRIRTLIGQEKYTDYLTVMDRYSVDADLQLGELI

WNV NS5 = WNV NS5 (West Nile virus, UniProt Q9Q6P4); experiment: biochemical; type: binding
Chain of WNV NS5 (Q9Q6P4 2529-3433 limits assumed): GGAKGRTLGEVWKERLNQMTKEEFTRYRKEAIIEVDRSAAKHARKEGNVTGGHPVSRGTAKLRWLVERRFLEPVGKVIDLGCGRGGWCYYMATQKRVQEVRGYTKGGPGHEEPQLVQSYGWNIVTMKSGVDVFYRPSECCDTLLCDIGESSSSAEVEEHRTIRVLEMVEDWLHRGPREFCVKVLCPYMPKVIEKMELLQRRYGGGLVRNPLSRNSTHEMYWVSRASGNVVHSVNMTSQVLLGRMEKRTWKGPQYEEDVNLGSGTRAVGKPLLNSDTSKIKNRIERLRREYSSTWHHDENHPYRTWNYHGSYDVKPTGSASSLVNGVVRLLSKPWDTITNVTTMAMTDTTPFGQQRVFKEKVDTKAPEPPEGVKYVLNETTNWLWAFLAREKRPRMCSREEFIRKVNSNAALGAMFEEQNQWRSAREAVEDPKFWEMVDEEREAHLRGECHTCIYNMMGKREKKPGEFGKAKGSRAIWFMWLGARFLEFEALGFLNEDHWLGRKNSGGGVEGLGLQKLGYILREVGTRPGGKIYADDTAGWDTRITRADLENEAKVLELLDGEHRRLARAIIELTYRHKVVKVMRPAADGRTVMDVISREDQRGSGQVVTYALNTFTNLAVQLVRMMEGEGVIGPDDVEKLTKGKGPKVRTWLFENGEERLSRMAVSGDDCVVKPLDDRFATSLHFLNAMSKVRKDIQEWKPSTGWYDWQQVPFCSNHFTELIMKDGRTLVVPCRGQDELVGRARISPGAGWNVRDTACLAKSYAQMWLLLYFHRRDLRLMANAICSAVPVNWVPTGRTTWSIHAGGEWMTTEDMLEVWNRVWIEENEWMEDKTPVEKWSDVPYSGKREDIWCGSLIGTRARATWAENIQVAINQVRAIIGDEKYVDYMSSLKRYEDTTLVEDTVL

[7] = system: WT-YFV strain FJYF03/2016; design: species or system A129^−/− mice; settings: mouse, in vivo
[8] = system: WT-YFV strain FJYF03/2016; design: species or system C57 mice; settings: mouse, in vivo

Cl.N [NH4Cl]
virion-host cell fusion (DiD fluorescence signal) (YFV-17D^DiD): fluorescence signal reduced significantly

CO[C@H]1/C=C/O[C@@]2(C)Oc3c(C)c(O)c4c(O)c(c(/C=N/N5CCN(C6CCCC6)CC5)c(O)c4c3C2=O)NC(=O)/C(C)=C\C=C\[C@H](C)[C@H](O)[C@@H](C)[C@@H](O)[C@@H](C)[C@H](OC(C)=O)[C@@H]1C [Rifapentine]
intracellular YFV RNA level (YFV-17D [1]): suppressed in a dose-dependent manner | inhibitory effect on HCV infection (hepatitis C virus (HCV)): no obvious inhibitory effect | inhibitory effect on DENV infection (dengue virus (DENV)): no obvious inhibitory effect | inhibitory effect on ZIKV infection (Zika virus (ZIKV)): no obvious inhibitory effect | inhibitory effect on JEV infection [2]: no obvious inhibitory effect | inhibitory effect on WNV infection (West Nile virus (WNV)): slight suppressive activity above 5 μM | effect on YFV infection in kinetic test (YFV-17D [3]): obstructive effect on YFV infection throughout the entire phase of viral entry and post-entry stages | YFV attachment to the cell surface (YFV-17D [4]): impeded YFV attachment to the cell surface in a dose-dependent manner | WNV binding (WNV): did not affect WNV binding | infectivity of virions incubated with compound (YFV-17D [5]): no obvious differences in infectivity | TF uptake [6]: No major changes | virion-host cell fusion (DiD fluorescence signal) (YFV-17D^DiD): no inhibitory effect | YFV replication in replicon cells (YFV replicon): robustly abolished YFV replication from 1 to 25 μM | YFV assembly and release (YFV): did not influence YFV assembly and release | Kd (YFV NS5): 20.8 µM | Kd (WNV NS5): 54.6 µM | body weight of survival mice [7]: recovered to almost the normal level | clinical signs [7]: slowed down or reduced the occurrence of clinical signs | survival rate [7]: significantly enhanced the survival rate | virus titres in kidney [7]: did not recognize distinctive changes | virus titres in liver [7]: did not recognize distinctive changes | virus titres in serum [7]: reduced virus titres significantly | virus titres in spleen [7]: reduced virus titres significantly | body weight of surviving mice [8]: all recovered to normal levels | clinical symptoms [8]: fewer injury features | survival of mice [8]: significantly improved the survival of mice | survival rate [8]: approximately 40%

CC(C)OC(=O)[C@H](C)N[P@](=O)(OC[C@H]1O[C@@H](n2ccc(=O)[nH]c2=O)[C@](C)(F)[C@@H]1O)Oc1ccccc1 [Sofosbuvir]
YFV replication in replicon cells (YFV replicon): relatively good inhibitory effect | Kd (YFV NS5): 6140 µM | survival rate [7]: slight protective activity in the highest infection-dose group

CO/C1=C\C(C)=C\[C@@H](C)[C@@H](O)[C@@H](C)C/C(C)=C/C=C/[C@H](OC)[C@@H]([C@@H](C)[C@@H](O)[C@H](C)[C@@]2(O)C[C@@H](O)[C@H](C)[C@@H](C(C)C)O2)OC1=O [bafilomycin A1]
virion-host cell fusion (DiD fluorescence signal) (YFV-17D^DiD): fluorescence signal reduced significantly

Reference: paper PMC8942558 (Emerging Microbes & Infections, 2022)
